Assay results published in ChEMBL document CHEMBL3507680, “University of Dundee, Gates Library screen for HepG2 cell viability”.

test: Human HepG2 cell viability assay in 384 well format; type: toxicity, cell-based; parameters: dose 125 nL, time 70.5 hour; concentration not given beside the values; details: HepG2 cells, read-out: Inhibition

| Structure (SMILES) | cytotoxicity at 70.5 h |
| --- | --- |
| Cc1cc(C)c(CNC(=O)N2CCCC2c2ccccc2)c(=O)[nH]1 (centres undefined) | 2.02% |
| Cc1ncsc1C(=O)N1CCCC1c1c(C)nn(C)c1C (centres undefined) | -1.63% |
| CS(=O)(=O)N1CCC(O)(Cn2c(C3CC3)nc3ccccc3c2=O)CC1 | -1.88% |
| COc1ncnc(N(C)C)c1NC(=O)Cc1c[nH]c2ccc(F)cc12 | -7.3% |
| O=C1Nc2ccccc2C12CCCN(Cc1ccncc1)C2 (centres undefined) | -10.6% |
| Cc1ccccc1SCC(=O)Nn1cnnc1 | -9.7% |
| c1ccc(-c2nc(CNCC3CCCN3c3cccnn3)co2)cc1 (centres undefined) | 12.4% |
| NCC1(c2cccc(C(F)(F)F)c2)CC1 | 13.4% |
| CCc1nccc(CN2CCC(CNC(=O)c3occc3C)C2)n1 (centres undefined) | -5.76% |
| CC(C)C(=O)NCCNC(=O)C12CCC(=O)N1c1cc(Cl)ccc1S2 (centres undefined) | -1.8% |
| c1ccc(COC[C@H]2CC[C@H]3[C@H](CCN3c3ncccn3)O2)nc1 | -3.8% |
| CN(Cc1ccsc1)C(=O)c1cccc(S(=O)(=O)NC(C)(C)C)c1 | -2.95% |
| Cc1cccc(C(=O)N2C[C@@H]3COC[C@@H](CC(=O)N4CCCC4)[C@@H]3C2)n1 | 4.3% |
| Cc1cc(C)n(CC(=O)N2CCC(NS(=O)(=O)c3ccccc3)CC2)n1 | -5.45% |
| CN(C)C(CNC(=O)c1cccc(C(N)=O)c1)c1ccccc1Cl (centres undefined) | 3.17% |
| O=C1N(CCO)CCCC12CCN(Cc1noc(C3CCCC3)n1)C2 (centres undefined) | 5.43% |
| CN(Cc1cccnc1)C1CC2(CCN(Cc3ccccn3)CC2)C1 | -11.6% |
| CCCn1cnnc1CNC(=O)C1COc2cc(OC)ccc2C1 (centres undefined) | 18.3% |
| CN1CCN(CC2CC2)C(=O)C12CCN(C(=O)CC(F)(F)F)CC2 | -4.4% |
| Cc1nn(C)c2c(N3CCCC3)nc(C3CC3)nc12 | -11.4% |
| CN(Cc1cnn(C)c1)C(=O)CN1CCCCC1Cn1cncn1 (centres undefined) | -7.41% |
| CC(C)Sc1ncccc1C(=O)NCc1cccc(N(C)C)c1 | 0.244% |
| O=C(NCC1CC1)N1CCN(Cc2ccc3c(c2)OCCO3)CC1 | 2.86% |

| Structure (SMILES) | cytotoxicity at 70.5 h |
| --- | --- |
| CC(C)NC(=O)N1CCOC2(CCCN(c3cccc(C#N)c3)C2)C1 (centres undefined) | -10.4% |
| CN(Cc1ncc(-c2ccccc2)o1)CC1CCCN1c1cccnn1 (centres undefined) | -10.2% |
| COCC(=O)N1CC[C@@H](O)[C@@H]1Cc1ccccc1 | 5.48% |
| Cc1cc(C)nc(N2CCCC(C)(c3[nH]ncc3C(=O)N(C)C)C2)n1 (centres undefined) | -4.44% |
| Fc1cccc(CN2CCC[C@@H](Cn3nnc(-c4ccccn4)n3)C2)c1 | -5.77% |
| c1cnn(CC2CN(c3ncnc4sccc34)CCO2)c1 (centres undefined) | -4.77% |
| NC(=O)C1CCN(Cn2nc(-c3ccccc3)oc2=O)CC1 | -8.01% |
| CCOc1cc2c(cc1CCC(=O)O)CCC2 | 7.85% |
| CC(C)(C(=O)NCC(N)=O)c1ccccc1F | -5.2% |
| CC(c1ccc(F)cc1)N1CCN(Cc2nccn2C)CC1 (centres undefined) | 4.48% |
| COCC1CN(Cc2ccc(OC)cc2)Cc2nn(C)cc21 (centres undefined) | 8.65% |
| COc1ccc(-c2nc(CSC3CCCCNC3=O)co2)cc1 (centres undefined) | -3.03% |
| NC(=O)C1(CCCc2ccccn2)CCCN(Cc2ncc[nH]2)C1 (centres undefined) | 1.81% |
| Cc1cc(CN(C)C2CCCN(c3cccnn3)C2)on1 (centres undefined) | 28.9% |
| COc1ccc(CN2CC[C@H](NC(C)=O)[C@@H](O)CC2)c(OC)c1 | -17.2% |
| CS(=O)(=O)N1Cc2nccn2CC(CNC(=O)c2cccnc2)C1 (centres undefined) | -5.69% |
| Fc1ccc(F)c(CN2CCC(c3n[nH]c4ncccc34)CC2)c1 | -7.24% |
| CN(C)c1nc(N)nc(CN2CCC(c3ccccc3)CC2)n1 | -10.6% |
| O=C(CSc1ccncc1)NC1CC(=O)N(CCc2ccccc2)C1 (centres undefined) | -8.43% |
| CC(CNC(=O)N1CCSCC1)Cc1cccs1 (centres undefined) | 4.95% |
| CN(C)C(C(=O)NCCSc1ncn[nH]1)c1cccc(F)c1 (centres undefined) | 28.8% |
| CCOCC(O)CN1CCN(C(=O)C2CCCCC2)CC1 (centres undefined) | -0.878% |
| Cc1cnn(CC2CCCN2C(=O)CN(C)C2CC2)c1 (centres undefined) | -11.8% |

| Structure (SMILES) | cytotoxicity at 70.5 h |
| --- | --- |
| CC(C)SCc1cccc(NC2CCN(C)C2=O)c1 (centres undefined) | -15.1% |
| CC(C)(N)c1cn(C2CCN(C3CCSCC3)CC2)nn1 | -6.81% |
| O=C(c1cnn2ccccc12)N1CCCC(OCc2ccccn2)C1 (centres undefined) | -6.94% |
| CN(C)CC1(O)CCCN(C(=O)CCn2cc(Cl)cn2)C1 (centres undefined) | 26.8% |
| Cn1nc(C2CNCCO2)cc1CCOc1ccc(Cl)cc1 (centres undefined) | 7.97% |
| CCC(=O)NCC(=O)NC(C)c1ccc(OCCC(C)C)cc1 (centres undefined) | -2.78% |
| CN1CCCN(C(=O)c2nnn(-c3ccc(C(F)(F)F)cc3)n2)CC1 | -4.86% |
| CCc1n[nH]c(C2CN(C(=O)c3ccsc3)CCO2)n1 (centres undefined) | -9.96% |
| CCNc1cc2c(nn1)CCN(C(=O)CCc1c(C)noc1Cl)C2 | -4.23% |
| CC(C)(O)CSCCNC(=O)c1ccc(F)cc1Cl | -2.51% |
| COCCNS(=O)(=O)c1ccc2c(c1)CCN(C(=O)c1cncn1C)C2 | -5.18% |
| Cc1nccn1CCCC(=O)N1CCCN(c2cccnn2)CC1 | -2.35% |
| Cn1ccc(C(=O)NC2CCC23CCN(C(=O)c2ccccn2)CC3)c1 (centres undefined) | -4.01% |
| O=C1[C@H]2CN(c3ncc(F)cn3)C[C@H]2CN1CC1CC1 | 5.29% |
| C[C@@H]1CN(C2(C(=O)N3CCSCC3)Cc3ccccc3C2)C[C@H](C)O1 | 2.94% |
| COCC(c1cccc(C(F)(F)F)c1)N(C)C(=O)c1cc(C)n[nH]1 (centres undefined) | 18.4% |
| O=C(O)c1cc2c(nc1-c1ccoc1)CCN(CC1CCOC1)CC2 (centres undefined) | -13.1% |
| CCOc1ccnc(N2CCN(C(=O)c3c(CC)noc3C)CC2)n1 | -7.39% |
| Cc1nc(CN2CCCN(C(=O)c3c(C)oc(C)c3C)CC2)cs1 | -10% |
| CCCSc1ncccc1C(=O)NCc1ccc(N(C)C)cc1 | 18.5% |
| O=C(CNC(=O)c1ccc(Cl)cc1)Nc1nccs1 | 20.2% |
| COc1cc(CN(C)C(=O)NCCNC(=O)C2CC2)ccc1SC | -16% |
| CN(CCc1ccccn1)C(=O)C(O)c1cc(Cl)cc(Cl)c1 (centres undefined) | 42.8% |

| Structure (SMILES) | cytotoxicity at 70.5 h |
| --- | --- |
| CC(C)C(C)NC(=O)c1ncn2c1CN(C)S(=O)(=O)c1ccccc1-2 (centres undefined) | -2.58% |
| CC(OCC1CC1)C(=O)Nc1cccc(C(=O)Nc2ccccn2)c1 (centres undefined) | -8.38% |
| COCCn1ccc2c(C(=O)NC3CN4CCC3CC4)cccc21 (centres undefined) | -20.8% |
| Cc1cccc(CN2C[C@@H]3CN(C(=O)c4cnoc4C)C[C@@H]3C2=O)n1 | -5.42% |
| O=C(O)C1(O)CCN(c2ccnc3c(C(F)(F)F)cccc23)CC1 | -25.6% |
| COc1cccc(COCC(=O)N2CCCC(c3nncn3C)C2)c1 (centres undefined) | -12.7% |
| CC(C)C(=O)Nc1cc(C(C)(C)C)nn1-c1ccccn1 | -3.18% |
| O=C(Cn1cnc(NC(=O)CC2CCCC2)n1)NCc1ccccc1 | 1.33% |
| O=C(O)[C@@H]1CCN(C(=O)c2cscn2)[C@@H]1c1ccc(F)cc1 | -2.87% |
| COc1ccccc1CC(=O)N1CCC(NCc2ccccn2)CC1 | 21% |
| CN1CC[C@@H]2[C@@H](CO[C@H]2CNC(=O)c2nccn2C)C1 | -4.99% |
| CC(O)CN1CCN(Cc2coc(-c3ccc(Cl)cc3)n2)CC1 (centres undefined) | -5.87% |
| CCC(C)C(=O)Nc1ccc(CCN2CCOCC2)cc1 (centres undefined) | -18.2% |
| CN(Cc1cccs1)c1cc(N2CCCC2CO)ncn1 (centres undefined) | -1.74% |
| CS(=O)(=O)NC[C@H]1Cn2c(-c3ccccc3)cnc2CO1 | -7.36% |
| CCc1noc(C)c1C(=O)NCC(c1ccc(C)cc1)N(C)C (centres undefined) | -3.99% |
| Cc1nn(C)c(C)c1C1CCCN1C(=O)CCNS(C)(=O)=O (centres undefined) | -5.69% |
| NC(=O)Cn1cc(NC(=O)N2CCN(c3ccc(F)cc3)CC2)cn1 | 8.67% |
| CC(C)NC(=O)N1CCN(S(C)(=O)=O)CC2(CNC(=O)C2)C1 (centres undefined) | -17.9% |
| c1cncc(N2CC[C@@H]3CN(CC4CC4)C[C@@H]3C2)c1 | -26.1% |
| c1ccc2c(c1)CN(c1ncnc3sc4c(c13)CCNC4)CCO2 | 0.0341% |
| CCc1ncc(C(=O)NCCN2CCNC2=O)cn1 | -5.68% |
| N#Cc1ccc(F)c(CNc2ccc(F)cc2OCCO)c1 | 16.6% |

| Structure (SMILES) | cytotoxicity at 70.5 h |
| --- | --- |
| CN(C)CC(=O)N1CCOCC(Cc2ccccn2)C1 (centres undefined) | -13.2% |
| CNc1cncc(C2CCN(C(=O)c3cnco3)CC2)n1 | 9.47% |
| COc1ccc(-c2csc3c2c(N)nc(=O)n3CCN(C)C)cc1 | -7.62% |
| O=C(NCC1CCCO1)c1cc(-c2ccc3c(c2)CCO3)n[nH]1 (centres undefined) | 16.6% |
| Cc1cc(NC(C)C(=O)NCc2ccccc2)nc(-c2ccncc2)n1 (centres undefined) | -13.1% |
| O=C(NCC1Cn2nnc(-c3ccncc3)c2CO1)c1ccc[nH]1 (centres undefined) | -5.04% |
| Cc1ccccc1[C@@H]1CN(Cc2nc3ncccn3n2)C[C@H]1C(=O)O | 3.89% |
| Cc1cc(N2CCC(NC(C)Cc3ccsc3)CC2)nc(C)n1 (centres undefined) | -2.86% |
| CC(=O)Nc1ccc(CNC(=O)CNCc2nnc(C)o2)cc1 | 2.3% |
| O=C(O)c1nnn(-c2ccc(C(F)(F)F)cc2)c1-c1ccncc1 | -26.2% |
| Cc1csc(N2CCN(Cc3ccn(C)c(=O)c3)CC2)n1 | -5.98% |
| CC(NCc1cccc(NC(=O)C2CCCCC2)c1)c1cnn(C)c1 (centres undefined) | -9.44% |
| Cc1nc(C)n(CC2CN(Cc3cccnc3)Cc3nccn3C2)n1 (centres undefined) | -1.38% |
| COc1c(CNC2CCCc3ccccc32)c(C(C)C)nn1C (centres undefined) | 9.34% |
| O=C1CCCN1CC1CCCCN1C(=O)Nc1cccnc1 (centres undefined) | -1.1% |
| CCc1nc(CN2CCCC(NCc3nnc(C4CC4)n3C)C2)no1 (centres undefined) | -8.85% |
| COc1cccc(-c2n[nH]cc2CNC2CCN(C(C)C)CC2)c1 | -0.27% |
| CN1CCc2c(C#N)c(NCCN3CCOCC3)n3cnnc3c2C1 | -3.13% |
| c1cc(CNCC2OCCc3cn(CC4CC4)nc32)cs1 (centres undefined) | -4.34% |
| CN(C)CC(=O)N1CCc2sc(C(=O)N3CCN(C)CC3)cc21 | -2.73% |
| CCOC(=O)CN1CC(c2nc(-c3ccsc3)no2)C1 | 0.957% |
| Cc1nc(NCCSc2nnc(C)s2)c2cccnc2n1 | -14.5% |
